{
  "source": "paper PMC8856561",
  "about": "“Pharmacological and genetic activation of cAMP synthesis disrupts cholesterol utilization in Mycobacterium tuberculosis” (PLoS Pathogens, 2022)",
  "key": {"[1]": {"system": "Mtb", "assay": "microbe, parasite or virus in culture", "format": "cell-based, Mycobacterium tuberculosis", "conditions": "for inhibition of ΔRv1625c mutant: ΔRv1625c strain, cholesterol media"}, "[2]": {"target": "Rv1625c (Mycobacterium tuberculosis, UniProt P9WQ35)", "sequence (P9WQ35 whole entry, looked up)": "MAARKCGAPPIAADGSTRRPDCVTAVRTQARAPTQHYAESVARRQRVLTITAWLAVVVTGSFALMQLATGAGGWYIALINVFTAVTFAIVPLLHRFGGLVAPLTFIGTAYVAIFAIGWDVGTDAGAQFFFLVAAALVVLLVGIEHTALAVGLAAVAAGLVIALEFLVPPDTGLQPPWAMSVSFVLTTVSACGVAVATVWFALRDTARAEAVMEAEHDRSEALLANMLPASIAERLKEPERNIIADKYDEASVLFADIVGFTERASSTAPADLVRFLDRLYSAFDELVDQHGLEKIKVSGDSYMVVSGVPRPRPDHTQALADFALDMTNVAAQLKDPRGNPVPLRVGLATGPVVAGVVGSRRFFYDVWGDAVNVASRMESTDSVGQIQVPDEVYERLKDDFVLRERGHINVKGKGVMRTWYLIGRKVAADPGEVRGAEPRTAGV", "assay": "cAMP production in cya- E. coli expressing Rv1625c", "format": "cell-based", "conditions": "cya- E. coli with Rv1625c expression plasmid, 18 hours"}},
  "data": [
    {"smiles": "Cc1nonc1CC(=O)N1CCC(n2nnc(-c3ccc(F)cc3)n2)CC1", "note": "[V-59, 1-(4-(5-(4-fluorophenyl)-2H-tetrazol-2-yl)piperidin-1-yl)-2-(4-methyl-1,2,5-oxadiazol-3-yl)ethan-1-one]", "values": [
      {"measurement": "susceptibility of 2xrv1625c (rv1625c overexpression) strain relative to WT", "setting": "[1]; 7H12+cholesterol media", "result": "~ 15 fold"},
      {"measurement": "inhibition of ΔRv1625c mutant", "setting": "[1]", "result": "refractory"},
      {"measurement": "cAMP levels", "setting": "[2]", "result": "increased cAMP levels"}
    ]},
    {"smiles": "Cn1ncnc1CC(=O)N1CCC(c2nc(-c3ccc(Cl)c(Cl)c3)no2)CC1", "note": "[mCLB073, 1-(4-(3-(3,4-dichlorophenyl)-1,2,4-oxadiazol-5-yl)-1-piperidinyl)-2-(2-methyl-2H-1,2,4-triazol-3-yl)-1-ethanone]", "values": [
      {"measurement": "inhibition of ΔRv1625c mutant", "setting": "[1]", "result": "refractory"}
    ]}
  ]
}
